The values below are quoted from earlier work in patent US20130202654A1, “Topical Foam Composition” (priority 2009, published 2013).

Assay in data set [1]: not given
The source holds these as a separate data set.

Assay in data set [2]: not given
This is another data set of the same source.

Where two headings read alike, the source gives them in different places.

With `CO[C@H]1/C=C/O[C@@]2(C)Oc3c(C)c(O)c4c(O)c(c5c(nc6cc(C)ccn65)c4c3C2=O)NC(=O)/C(C)=C\C=C\[C@H](C)[C@H](O)[C@@H](C)[C@@H](O)[C@@H](C)[C@H](OC(C)=O)[C@@H]1C` [Rifaximin, (2S,16Z,18E,20S,21S,22R,23R,24R,25S,26S,27S,28E)-5,6,21,23,25-pentahydroxy-27-methoxy-2,4,11,16,20,22,24,26-octamethyl-2,7-(epoxypentadeca-[1,11,13]trienimino)benzofuro[4,5-e]pyrido[1,2-a]-benzimida-zole-1,15(2H)-dione,25-acetate], the Tmax (in vivo) was 0.8 h. For the same compound, for the setting “in vivo”, the half-life was 1.8 h. Also, the peak concentration (Cmax) (low systemic absorption) was 3.4 ng/mL. For the same compound, the “bound to plasma proteins” value in data set [1] was 67.5%. Moreover, the “solubility in alcohol, ethyl acetate, chloroform and toluene” value in data set [2] (alcohol, ethyl acetate, chloroform, toluene) is “soluble”. For the same compound, the solubility in alcohols result in data set [2] (alcohols) is recorded as “readily soluble”. The solubility in water entry was “water insoluble” in data set [2] and “virtually insoluble in water” in data set [2] (listed as rifaximin).
